Test results as given in US11612576B2 (Thiogenesis Therapeutics, Inc., priority 2017, dated 2023).
Counter-ions that a name gives are not always drawn. Like-named read-outs stand apart in the source and are kept apart here.

Columns and labels:
[1] = in vivo; cited from earlier work
[2] = Physical characteristics of TTI-0102 salt forms; type: physicochemical; settings: compared with free base
Description: TTI-0102 was prepared as in Example 14. The crude product was obtained by evaporation of water and DMF. The residue was suspended in ethyl acetate/water; precipitated dicyclohexylurea (DCU) was filtered off. The solution was evaporated and suspended in methanol. The precipitate (unreacted pantothenic acid) was filtered off. The filtrate was concentrated and then dissolved in a small volume of methanol. After addition of dichloromethane the cystamine hydrochloride precipitated and was filtered off. After evaporation of solvent, the residue was crystallized from methanol:acetone (1:10) to provide TTI-1 hydrochloride.
The tartrate salt was formed and crystallized from a MeOH:DCM mixture. The solid form was filtered off (precipitate) and filtrate was evaporated.

[3] = Cysteamine and pantetheine in rat gastrointestinal contents six hours after dosing (Example 13); type: in vivo, Sprague-Dawley rats
Description: In addition to the plasma samples, gastrointestinal contents (stomach contents, proximal small intestinal contents, distal small intestinal contents and cecum/colon contents) were obtained from rats at the end of the study (6 hours after dosing) and snap frozen. Tissue levels of cysteamine and pantetheine were measured in the gastrointestinal contents. The protocol for tissue analysis entailed (i) smashing frozen tissue fragments over dry ice to obtain small pieces; (ii) weighing several frozen tissue pieces (˜[…]) into a tared 1.5 ml microcentrifuge tube with two metal ball bearings and immediately storing on dry ice; (iii) homogenizing tissue fragments cryogenically using a Retsch Cryomill at 250 hertz for 5 minutes; (iv) thawing each sample on ice, adding two volumes of water (w:v., i.e. 2 microliters of water were added for each milligram of homogenized tissue) to make an approximately 1:3 dilution; (v) removing 20 ul of the resuspended tissue powder to a new tube, adding 2.2 ul of 50 mM TCEP (5 mM final concentration) and incubating for 45 minutes at 37 degrees C. (TCEP treated samples), or adding 2.2 ul of deioinized water in place of TCEP (no TCEP samples); (vi) adding 3.5 volumes of acetonitrile:0.1% formic acid, vortex mixing for 15 seconds, and then pelleting precipitated protein by centrifugation for 10 minutes at 14,000 rpm in a microcentrifuge at 4 degrees C.; (vii) transferring 25 ul of supernatant to a new tube containing 75 ul of ACN/0.1% FA; (vii) injecting samples on the LC-MS apparatus described above, using the same column and run conditions as for plasma samples.

[4] = Dissolution of the dose in saline before gavage; type: physicochemical; settings: 120 mg/kg dose (311.68 mg/kg compound 2) in 3 milliliters of saline
[5] = target: T1, tissue transglutaminase (transglutaminase 2, TG2) (Homo sapiens, UniProt P21980); settings: cited from earlier work
T1 sequence (P21980 1-687): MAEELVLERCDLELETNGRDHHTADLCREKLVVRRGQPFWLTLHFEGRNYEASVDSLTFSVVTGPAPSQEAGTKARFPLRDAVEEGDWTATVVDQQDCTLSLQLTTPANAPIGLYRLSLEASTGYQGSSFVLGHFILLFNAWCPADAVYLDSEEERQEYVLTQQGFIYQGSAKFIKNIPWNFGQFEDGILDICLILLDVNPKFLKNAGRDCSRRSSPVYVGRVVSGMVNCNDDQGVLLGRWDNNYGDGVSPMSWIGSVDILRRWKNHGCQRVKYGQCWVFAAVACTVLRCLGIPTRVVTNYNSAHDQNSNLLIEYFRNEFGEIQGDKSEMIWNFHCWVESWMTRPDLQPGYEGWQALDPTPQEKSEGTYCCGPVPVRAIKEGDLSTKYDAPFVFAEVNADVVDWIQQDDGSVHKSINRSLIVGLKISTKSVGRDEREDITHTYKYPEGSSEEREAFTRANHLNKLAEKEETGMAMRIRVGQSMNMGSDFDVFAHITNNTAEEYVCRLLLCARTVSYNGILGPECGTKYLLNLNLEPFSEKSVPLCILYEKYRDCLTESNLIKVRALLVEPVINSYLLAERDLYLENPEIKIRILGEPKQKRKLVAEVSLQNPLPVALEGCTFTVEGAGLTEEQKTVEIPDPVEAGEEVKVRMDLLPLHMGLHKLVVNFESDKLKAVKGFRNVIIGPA

[6] = tested on: mouse models of HD; settings: cited from earlier work
[7] = rat, in vivo
Description: Thus in the discussion below, and in the accompanying figures, a “30 mg/kg” dose of TTI-0102 means 68.73 mg/kg was administered, a “60 mg/kg” dose of TTI-0102 means 137.46 mg/kg was administered and a “100 mg/kg” dose of TTI-0602 (aka compound 2) means 229.1 mg/kg was administered.
Each of the four compounds was administered via gavage to three male Sprague-Dawley rats weighing approximately 300 grams. All doses were dissolved in 2.5 milliliters of saline.
Blood samples were obtained from rats immediately after dosing (within one minute) and 10, 20, 30, 45, 60, 90, 120, 180, 240, 300 and 360 minutes after dosing via carotid artery catheters surgically implanted before the PK study. Plasma was obtained from blood by centrifugation, snap frozen and stored at −80 degrees Celsius. Several days later plasma samples were thawed on ice and each aliquoted to two paired tubes (20 μL per tube), one of which was processed for measurement of thiols (after quantitative disulfide bond reduction), while the other was processed for analysis of disulfides.
Briefly, 2.2 ul of freshly prepared 50 mM TCEP stock solution was added to 20 ul of plasma and the sample incubated at 37 degrees C. for 45 minutes. The volume of plasma in the paired (non-reduced) sample was adjusted by adding 2.2 ul of deionized water.
After the TCEP reduction step all plasma samples were deproteinized by adding 3.5 volumes of ice cold acetonitrile (ACN)/1% formic acid (FA) solution containing internal standards (77 μL of ACN/1% FA solution was added to 22.2 μL of plasma).
The denatured protein was pelleted by centrifugation at 14,000 rpm for 10 minutes at 4 degrees C. in a microcentrifuge. The supernatant (25 ul) was removed to a new tube, mixed with 75 ul of ACN/0.1% FA solution and injected directly into a 150×2 mm Atlantis hydrophilic interaction liquid chromatography (HILIC) column (Waters; Milford, Mass.). Metabolites were analyzed using a Nexera X2 U-HPLC (Shimadzu) and a Q-Exactive hybrid quadrupole Orbitrap mass spectrometer (Thermo Fisher Scientific). […]

[8] = Rat pharmacokinetic study of compound 2: plasma cysteamine after gavage; type: in vivo, Sprague-Dawley rats; settings: cysteamine HCl, 30 mg/kg cysteamine base
Description: The compound 2 doses were prepared for 250 gram rats, but the actual masses of the rats at the time of drug administration varied from 267-300 grams, so the actual doses, normalized to body weight, ranged from 26.1-27.1 mg/kg in group 1, 51.7-56.2 mg/kg in group 2 and 108.3-109.5 mg/kg in group 3. Nonetheless, for convenience those doses are referred to as 30, 60 and 120 mg/kg.
Plasma was obtained from blood by centrifugation and snap frozen.

[9] = cited from earlier work
[10] = tested on: erythrocytes from sickle cell anemia patients; settings: cited from earlier work
[11] = tested on: kidney fibrosis; settings: ureteral stenosis and renal ischemia/reperfusion injury; cited from earlier work
[12] = tested on: Pseudomonas aeruginosa; settings: cited from earlier work
[13] = tested on: Plasmodium Falciparum; settings: in vitro and in mouse models of malaria; cited from earlier work
[14] = tested on: P-gp, OCT2, BCRP, OATP1B1, OATP1B3, OAT1, OAT3, OCT1; settings: in vitro; cited from earlier work
[15] = tested on: CYP1A2, CYP2A6, CYP2B6, CYP2C8, CYP2C9, CYP2C19, CYP2D6, CYP2E1 and CYP3A4; settings: in vitro; cited from earlier work
[16] = tested on: xenograft models; settings: cited from earlier work
[17] = tested on: CYP1A2, CYP2B6, CYP2C8, CYP2C9, CYP2C19, CYP2D6, CYP2E1, CYP2A6, CYP3A4; settings: in vitro; cited from earlier work
[18] = tested on: matrix metalloproteinases (MMPs); settings: high concentrations (e.g. 25 millimolar); cited from earlier work

For `CC(C)(COP(=O)(O)O)[C@@H](O)C(=O)NCCC(=O)NCCS` [4-phosphopantetheine], the “half life in blood” value [1] is listed as “over 3 hours”.

For `CC(C)(CO)[C@@H](O)C(=O)NCCC(=O)NCCSSCCN` [acetate salt of TTI-0102], the “stability of salt form” value [2] was “more stable than the free base”.

With `CC(C)(CO)[C@@H](O)C(=O)NCCC(=O)NCCSSCCN` [compound 1, cysteamine-(R)-pantetheine disulfide] the “fraction of small intestinal pantetheine in the form of the thiol” value ([3]; compound 1 100 mg/kg, no TCEP vs TCEP samples) was “about half”, the “pantetheine at all levels of the gastrointestinal tract (stomach, proximal and distal small intestine, colon)” value ([3]; compound 1 100 mg/kg, six hours after dosing) was “high levels of pantetheine are present” and the “colon contents (TCEP reduced)” value ([3]; compound 1, six hours after dosing) was “high concentrations of both cysteamine and pantetheine”.

For `CC(=O)NCCSSCCNC(=O)CCNC(=O)[C@H](O)C(C)(C)CO` [compound 2, N-acetylcysteamine-(R)-pantetheine disulfide], the “dissolution of dose in saline” value [4] was “did not completely dissolve in saline”.

In the case of `NCCSSCCN` [cystamine], the “inhibition of tissue transglutaminase (TG2)” value [5] is listed as “TG2 inhibitor” and the “effects in several mouse models of Huntington's disease” value ([6]; mouse, in vivo) is listed as “improves motor function and extends life-span”.

For `Cl.NCCS` [cysteamine HCl, cysteamine hydrochloride], the “time in which half of the dose is absorbed” value [7] was “one”, the “time of peak observed concentration after gavage” value [7] was 10 min and the Cmax ([7]; 30 mg/kg) was about 55.3 µM. The “peak plasma cysteamine concentration” value [8] was “over 200 uM” and the “time by which cysteamine concentration declined to less than half maximal” value [8] was at most 90 min.

For `NCCS` [cysteamine bitartrate], the Cmax ([9]; read-out: C max of cysteamine, cysteamine bitartrate 20 mg/kg cysteamine base equivalent) is listed as 81.9 µM.

In the case of `NCCS.O=C(O)C(O)C(O)C(=O)O` (stereo not shown) [cysteamine bitartrate], the “fraction of cysteamine eliminated by 150 minutes (inferred)” value ([9]; cysteamine bitartrate 20 mg/kg) is listed as “over 95%”, the “time by which cysteamine levels returned to baseline” value ([9]; cysteamine bitartrate 20 mg/kg) is listed as at most 2 h and the “tissue half life of cysteamine” value ([9]; cysteamine bitartrate 20 mg/kg) is listed as 25 to 29 min.

For `NCCS` [cysteamine, 2-aminoethanethiol], the “sickling under hypoxic conditions” value [10] is listed as “marked inhibition of sickling”, the “efficacy in mouse models of kidney fibrosis” value [11] is listed as “effective” and the “inhibition of tissue transglutaminase (TG2)” value [5] is listed as “inhibits”. The “beneficial effects in R6/2 HD mouse model” value ([6]; R6/2 mouse model) was “amelioration of weight loss and motor abnormalities, and prolongation of survival”, the “activity against Pseudomonas aeruginosa and other CF pathogens” value [12] was “bactericidal” and the “proliferation of Plasmodium Falciparum” value [13] was “inhibits proliferation”. For the same compound, the “substrate of BCRP, OATP1B1, OATP1B3, OAT1, OAT3 and OCT1” value [14] was “not a substrate”, the “substrate of P-gp and OCT2” value [14] was “is a substrate” and the “half life in blood” value [1] was “about 25 minutes”. The “inhibition of CYP1A2, CYP2A6, CYP2B6, CYP2C8, CYP2C9, CYP2C19, CYP2D6, CYP2E1 and CYP3A4” value [15] was “not an inhibitor”, the survival of mice [16] was “prolonged survival of mice in a dose-dependent manner without toxicity” and the “metabolism by CYP1A2, CYP2B6, CYP2C8, CYP2C9, CYP2C19, CYP2D6 and CYP2E1” value [17] was “likely to be metabolized by multiple CYP enzymes”. The “metabolism by CYP2A6 or CYP3A4” value [17] was “not by CYP2A6 or CYP3A4” and the “inhibition of matrix metalloproteinases” value [18] was “inhibits”.
